{
  "source": "PubChem BioAssay (NCI)",
  "experiment_in_all_cases": "NCI tumour cell line growth inhibition, 48 h",
  "key": {"[1]": {"test_system": "UACC-62 melanoma"}, "[2]": {"test_system": "NCI-H522 lung"}, "[3]": {"test_system": "SK-MEL-28 melanoma"}, "[4]": {"test_system": "SF-295 CNS"}, "[5]": {"test_system": "A549 NSCLC"}, "[6]": {"test_system": "UACC-257 melanoma"}, "[7]": {"test_system": "NCI-H460 lung"}, "[8]": {"test_system": "786-0 renal"}, "[9]": {"test_system": "OVCAR-4 ovarian"}, "[10]": {"test_system": "MDA-MB-435"}},
  "note": "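Five concentrations, 48 hours, 96-well plates. Definition used: TGI = concentration required for complete inhibition of growth.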",
  "data": [
    {"smiles": "CCCCCCCCCCCCCCCCNc1cccc2ccccc12", "values": [
      {"measurement": "TGI", "setting": "[1]", "value": "> 100", "unit": "µM"},
      {"measurement": "TGI", "setting": "[2]", "value": "> 100", "unit": "µM"},
      {"measurement": "TGI", "setting": "[3]", "value": "> 100", "unit": "µM"},
      {"measurement": "TGI", "setting": "[4]", "value": "> 100", "unit": "µM"},
      {"measurement": "TGI", "setting": "[5]", "value": "> 100", "unit": "µM"},
      {"measurement": "TGI", "setting": "[6]", "value": "> 100", "unit": "µM"},
      {"measurement": "TGI", "setting": "[7]", "value": "> 100", "unit": "µM"},
      {"measurement": "TGI", "setting": "[8]", "value": "> 100", "unit": "µM"}
    ]},
    {"smiles": "CCOC(=O)C1S/C(=N\\C(=N)N[N+](=O)[O-])N=C1C", "note": "(stereo not drawn)", "values": [
      {"measurement": "TGI", "setting": "[2]", "value": "> 100", "unit": "µM"},
      {"measurement": "TGI", "setting": "[9]", "value": "> 100", "unit": "µM"},
      {"measurement": "TGI", "setting": "[3]", "value": "> 100", "unit": "µM"},
      {"measurement": "TGI", "setting": "[4]", "value": "> 100", "unit": "µM"},
      {"measurement": "TGI", "setting": "[5]", "value": "> 100", "unit": "µM"},
      {"measurement": "TGI", "setting": "[6]", "value": "> 100", "unit": "µM"},
      {"measurement": "TGI", "setting": "[7]", "value": "> 100", "unit": "µM"},
      {"measurement": "TGI", "setting": "[8]", "value": "> 100", "unit": "µM"}
    ]},
    {"smiles": "Cc1c(/C=N\\NC(=S)NCCNC(=S)N/N=C\\c2c(C)n(C)n(-c3ccccc3)c2=O)c(=O)n(-c2ccccc2)n1C", "values": [
      {"measurement": "TGI", "setting": "[1]", "value": "> 100", "unit": "µM"},
      {"measurement": "TGI", "setting": "[9]", "value": "> 100", "unit": "µM"},
      {"measurement": "TGI", "setting": "[10]", "value": "> 100", "unit": "µM"},
      {"measurement": "TGI", "setting": "[4]", "value": "> 100", "unit": "µM"},
      {"measurement": "TGI", "setting": "[5]", "value": "> 100", "unit": "µM"},
      {"measurement": "TGI", "setting": "[6]", "value": "> 100", "unit": "µM"},
      {"measurement": "TGI", "setting": "[7]", "value": "> 100", "unit": "µM"},
      {"measurement": "TGI", "setting": "[8]", "value": "> 100", "unit": "µM"}
    ]},
    {"smiles": "C=C1CC(C#N)(C#N)[C@H]2C3CCCC3C[C@@H]12", "note": "(stereo partly drawn) (tested in a mixture with another compound)", "values": [
      {"measurement": "TGI", "setting": "[1]", "value": "> 100", "unit": "µM"},
      {"measurement": "TGI", "setting": "[3]", "value": 42.4, "unit": "µM"},
      {"measurement": "TGI", "setting": "[10]", "value": 44.5, "unit": "µM"},
      {"measurement": "TGI", "setting": "[4]", "value": 39.4, "unit": "µM"},
      {"measurement": "TGI", "setting": "[8]", "value": 36.9, "unit": "µM"}
    ]},
    {"smiles": "Cc1nc(C)c(C(=O)NNC(=O)C[N+](C)(C)C)cc1C(=O)NNC(=O)C[N+](C)(C)C", "values": [
      {"measurement": "TGI", "setting": "[1]", "value": "> 100", "unit": "µM"},
      {"measurement": "TGI", "setting": "[9]", "value": "> 100", "unit": "µM"},
      {"measurement": "TGI", "setting": "[3]", "value": "> 100", "unit": "µM"},
      {"measurement": "TGI", "setting": "[10]", "value": "> 100", "unit": "µM"},
      {"measurement": "TGI", "setting": "[4]", "value": "> 100", "unit": "µM"},
      {"measurement": "TGI", "setting": "[5]", "value": "> 100", "unit": "µM"},
      {"measurement": "TGI", "setting": "[6]", "value": "> 100", "unit": "µM"},
      {"measurement": "TGI", "setting": "[7]", "value": "> 100", "unit": "µM"},
      {"measurement": "TGI", "setting": "[8]", "value": "> 100", "unit": "µM"}
    ]},
    {"smiles": "O=C1OCC/C1=N/O", "values": [
      {"measurement": "TGI", "setting": "[1]", "value": "> 100", "unit": "µM"},
      {"measurement": "TGI", "setting": "[2]", "value": "> 100", "unit": "µM"},
      {"measurement": "TGI", "setting": "[9]", "value": "> 100", "unit": "µM"},
      {"measurement": "TGI", "setting": "[3]", "value": "> 100", "unit": "µM"},
      {"measurement": "TGI", "setting": "[4]", "value": "> 100", "unit": "µM"},
      {"measurement": "TGI", "setting": "[5]", "value": "> 100", "unit": "µM"},
      {"measurement": "TGI", "setting": "[6]", "value": "> 100", "unit": "µM"},
      {"measurement": "TGI", "setting": "[7]", "value": "> 100", "unit": "µM"},
      {"measurement": "TGI", "setting": "[8]", "value": "> 100", "unit": "µM"}
    ]},
    {"smiles": "N[C@@H](Cc1ccccc1)C(=O)N1CCC[C@@H]1P(=O)(Oc1ccccc1)Oc1ccccc1", "values": [
      {"measurement": "TGI", "setting": "[1]", "value": "> 100", "unit": "µM"},
      {"measurement": "TGI", "setting": "[9]", "value": "> 100", "unit": "µM"},
      {"measurement": "TGI", "setting": "[3]", "value": "> 100", "unit": "µM"},
      {"measurement": "TGI", "setting": "[10]", "value": "> 100", "unit": "µM"},
      {"measurement": "TGI", "setting": "[4]", "value": "> 100", "unit": "µM"},
      {"measurement": "TGI", "setting": "[5]", "value": "> 100", "unit": "µM"},
      {"measurement": "TGI", "setting": "[6]", "value": "> 100", "unit": "µM"},
      {"measurement": "TGI", "setting": "[7]", "value": "> 100", "unit": "µM"},
      {"measurement": "TGI", "setting": "[8]", "value": "> 100", "unit": "µM"}
    ]},
    {"smiles": "BrC(=C(c1ccc(OC2CCCCO2)cc1)c1ccc(OC2CCCCO2)cc1)c1ccccc1", "note": "(stereo not drawn)", "values": [
      {"measurement": "TGI", "setting": "[1]", "value": "> 100", "unit": "µM"},
      {"measurement": "TGI", "setting": "[9]", "value": "> 100", "unit": "µM"},
      {"measurement": "TGI", "setting": "[3]", "value": "> 100", "unit": "µM"},
      {"measurement": "TGI", "setting": "[10]", "value": "> 100", "unit": "µM"},
      {"measurement": "TGI", "setting": "[4]", "value": "> 100", "unit": "µM"},
      {"measurement": "TGI", "setting": "[5]", "value": "> 100", "unit": "µM"},
      {"measurement": "TGI", "setting": "[6]", "value": "> 100", "unit": "µM"},
      {"measurement": "TGI", "setting": "[7]", "value": "> 100", "unit": "µM"},
      {"measurement": "TGI", "setting": "[8]", "value": "> 100", "unit": "µM"}
    ]},
    {"smiles": "CC(O)CNC(=O)C(C)Oc1ccc(OCC2CCCCC2)cc1", "note": "(stereo not drawn)", "values": [
      {"measurement": "TGI", "setting": "[1]", "value": "> 100", "unit": "µM"},
      {"measurement": "TGI", "setting": "[2]", "value": "> 100", "unit": "µM"},
      {"measurement": "TGI", "setting": "[9]", "value": "> 100", "unit": "µM"},
      {"measurement": "TGI", "setting": "[3]", "value": "> 100", "unit": "µM"},
      {"measurement": "TGI", "setting": "[4]", "value": "> 100", "unit": "µM"},
      {"measurement": "TGI", "setting": "[5]", "value": "> 100", "unit": "µM"},
      {"measurement": "TGI", "setting": "[6]", "value": "> 100", "unit": "µM"},
      {"measurement": "TGI", "setting": "[7]", "value": "> 100", "unit": "µM"},
      {"measurement": "TGI", "setting": "[8]", "value": "> 100", "unit": "µM"}
    ]},
    {"smiles": "O=C1NC2c3c(I)sc(I)c3C(O)C2O1", "note": "(stereo not drawn)", "values": [
      {"measurement": "TGI", "setting": "[1]", "value": "> 100", "unit": "µM"},
      {"measurement": "TGI", "setting": "[9]", "value": "> 100", "unit": "µM"},
      {"measurement": "TGI", "setting": "[3]", "value": "> 100", "unit": "µM"},
      {"measurement": "TGI", "setting": "[10]", "value": "> 100", "unit": "µM"},
      {"measurement": "TGI", "setting": "[4]", "value": "> 100", "unit": "µM"},
      {"measurement": "TGI", "setting": "[5]", "value": "> 100", "unit": "µM"},
      {"measurement": "TGI", "setting": "[6]", "value": "> 100", "unit": "µM"},
      {"measurement": "TGI", "setting": "[7]", "value": "> 100", "unit": "µM"},
      {"measurement": "TGI", "setting": "[8]", "value": "> 100", "unit": "µM"}
    ]}
  ]
}
